Measured values as given in PMC9569768, “Selective Anti-Leishmanial Strathclyde Minor Groove Binders Using an N-Oxide Tail-Group Modification” (International Journal of Molecular Sciences, 2022).
≈ marks a conversion by molar mass, not a printed value. Read-outs that look alike come from different tables or passages of the source. Marks after values point to notes of the source that are not given here.

How the values were obtained:
[1] = tested on: bloodstream form T. b. brucei (Lister 427); assay: Anti-Trypanosoma alamarBlue assay; type: cell-based
Protocol: The bloodstream form T. b. brucei (Lister 427) was cultured in HMI-11 medium (Gibco) supplemented with 10% heat-inactivated FBS (Gibco), at 37 °C in a humidified 5% CO2 environment.
The EC50 values were determined using the in vitro alamarBlue assay. T. b. brucei parasites (2 × 10^4 cells per mL), were seeded into serial dilutions of the test compounds to a final volume of 200 μL and incubated for 48 h, after which 20 μL of 0.49 mM resazurin dye (Sigma-Aldrich, St. Louis, MO, USA) was added and the cells were incubated for a further 24 h. The reduction of resazurin was measured using a fluorimeter (FLUOstar Optima, BMG Labtech, Ortenberg, Germany) at 544 nm excitation and 590 nm emission wavelengths. The EC50 values were determined using Prism 5 software (GraphPad, San Diego, CA, USA). All experiments were carried out on at least three independent occasions.

[2] = tested on: L. donovani LV82 luc1 (MHOM/ET/67:LV82); assay: Anti-Leishmania assay, intracellular amastigotes in bone marrow-derived macrophages, luciferase readout; type: cell-based; conditions: read-out: L. donovani IC50
Protocol: The compounds were screened in vitro for their antileishmanial activity against the intracellular amastigote stage. Briefly, bone marrow-derived macrophages (0.5 × 10^5 cells per well) were infected using a 20:1 host cell: parasite ratio with luciferase-expressing L. donovani LV82 luc1 (MHOM/ET/67:LV82). […] Amphotericin B solution was used as a positive control and was used at a starting concentration of 1 μM. The medium was removed from each sample at 72 h post-infection and replaced with 150 μL luciferin solution (150 μg mL^−1 luciferin in serum-free medium). The amount of bioluminescent signal emitted/well was determined and used to calculate the mean suppression in the bioluminescent signal for each test sample compared to the mean control values. The EC50 values were calculated and the mean EC50 was calculated from the three separate experiments.

[3] = tested on: d(5′-CGCATATATGCG-3′); assay: UV-Vis DNA thermal melting, short DNA oligo; type: binding; conditions: 2 MGB: 1 DNA, 10 mM PBS pH 7.4, 50 mM NaCl
Protocol: The DNA oligonucleotide sequence 5′-[…]-3′ was purchased in lyophilised form from Alpha DNA, Canada, and used without further purification, with purity assessed via NMR. The DNA oligomer was melted at a rate of 0.5 °C/min in 10 mM PBS buffer solution (pH 7.4) with 50 mM NaCl on a Cary 300 BIO UV–visible spectrophotometer fitted with a Peltier temperature controller. The programs were set and the data were processed using Cary WinUV software. The duplex oligomer was made to a concentration of 6 × 10^−6 M, heated to 90 °C and allowed to cool to room temperature unaided. This was mixed with sufficient S-MGB to give the appropriate ratio of 2 MGB: 1 DNA. For the reference melting temperature, no S-MGB was added. Samples were heated from 10 °C to 90 °C and cooled from 90 °C to 10 °C, with the spectra being recorded at 260 nm during both of these cycles. The melting temperatures (Tm) of the duplex oligomers were determined by fitting a sigmoidal function using a Boltzmann distribution in OriginPro.

[4] = tested on: S. aureus ATCC 43300; assay: Antibacterial assay (MIC, broth dilution); type: cell-based; conditions: Staphylococcus aureus, read-out: S. aureus MIC
Protocol: The inhibition of bacterial growth was determined by OD600, using a Tecan Infinite M Nano plate reader. The percentage of growth inhibition was calculated for each well, using the negative control (medium only) and positive control (bacteria without inhibitors) on the same plate. […] Each MIC determination was carried out in triplicate, on separate days.

[5] = biological target: T1, hERG ion channel (Homo sapiens, UniProt Q12809); assay: hERG cell-binding assay, [3H]-astemizole displacement in hERG-transfected HEK293 cells; conditions: compounds at 10 μM
T1 construct: expressed in transfected cells; host or cells: HEK293 cells (gift of Dr. J. Mitcheson, University of Leicester)
Protocol: hERG-transfected HEK293 cells were kindly gifted by Dr. J. Mitcheson, University of Leicester. The cell cultures were maintained in Gibco Dulbecco’s Modified Eagle Medium (D-MEM) + GlutaMAX1^TM medium supplemented with 10% foetal bovine serum ([…]), 1% penicillin–streptomycin and 0.8% Geneticin in a Sanyo humidified incubator (37 °C, 5% CO2). Once at 80–90% confluency, the cells were lifted using a PBS-based, enzyme-free Cell Dissociation Buffer. The cell suspension was counted using a Bright Line Haemocytometer and centrifuged at 1000 rpm for 5 min, and the supernatant discarded. The pellet was resuspended in ice-cold Tris-HCl, pH 7.4 (20 mM), with 1% phenylmethylsulfonyl fluoride (PMSF). […]
[^3H]-Astemizole binding in hERG-transfected HEK293 cells was performed in a […] total volume according to the following conditions: cells (~200,000 cells per assay tube, […]), [^3H]- astemizole (0.5 nM, […]), incubation buffer (10 mM HEPES, pH 7.4, 130 mM NaCl, 5 mM KCl, 0.8 mM MgCl2, 10 mM glucose, 0.1% BSA, 100 mL) for the total binding or drug compound ([…], 100 mL) for the single-point assay. Non-specific binding was determined using nonradiolabelled astemizole ([…], 100 mL). […] The radioactivity retained on the filters (pre-soaked in 0.5% PEI) was measured via counting in scintillation fluid (4 mL, Tri-Carb 1500 Packard; Emulsifier-Safe).

[6] = tested on: bloodstream form T. b. brucei (Lister 427); set-up: method as in PMID 34447938; conditions: data previously reported ref 19; cited from earlier work
[7] = biological target: T1, hERG ion channel; set-up: method as in PMID 22948178; conditions: compounds at 10 μM; data previously reported ref 20; cited from earlier work
[8] = tested on: DNA sequence 5′-CGCATATATGCG-3′; assay: Native mass spectrometry of DNA binding stoichiometry; conditions: 9 μM DNA, 100 μM S-MGB, 150 mM ammonium acetate
Protocol: DNA sample preparation: The DNA oligonucleotide sequence 5′-[…]-3′ was purchased in lyophilised form from Alpha DNA, Montreal, Canada, and used without further purification; its purity was assessed via NMR. We prepared 100 μM stock solutions of DNA with 150 mM ammonium acetate buffer solution (Fisher Scientific, Loughborough, Leicestershire, UK) and 2 mM potassium chloride solution (Fisher Scientific, Loughborough, Leicestershire, UK). This solution was annealed at 90 degrees for 10 min and allowed to cool to room temperature. A total of 10 mM S-MGB stock in 100% DMSO (Sigma-Aldrich, St. Louis, MO, USA) was diluted to a 1 mM S-MGB solution with 150 mM ammonium acetate. The final samples were prepared from this solution to yield final concentrations of 9 μM DNA, 100 μM KCl, 100 μM S-MGB and 1% DMSO. DNA solutions containing no S-MGB included 1% DMSO and were used as controls.
Mass spectrometry measurements: Native mass spectrometry experiments were carried out using a Synapt G2Si instrument (Waters, Manchester, UK) with a nanoelectrospray ionisation source (nESI). Mass calibration was performed using a separate infusion of NaI cluster ions. […]

[9] = tested on: genomic DNA from salmon; assay: UV-Vis DNA thermal melting, genomic DNA; type: binding; conditions: 10 µM S-MGB, 0.02 mg/mL salmon gDNA
Protocol: Salmon DNA (D1626, Sigma-Aldrich) at 1 mg/mL in 1 mM phosphate buffer (pH 7.4) containing 0.27 mM KCl and 13.7 mM NaCl (P4417, Sigma-Aldrich) was annealed at 90 °C for 10 min. MGB-BP-3 at 10 mM in DMSO was diluted with the same phosphate buffer, and combined with the salmon DNA stock, to yield a single sample with 10 µM S-MGB and 0.02 mg/mL gDNA in 1 mM phosphate buffer containing 0.27 mM KCl and 13.7 mM NaCl. Control samples containing only MGB-BP-3 or gDNA were prepared, respectively. The samples were melted at a rate of 0.5 °C/min from 45 °C to 90 °C, with spectra recorded at 260 nm on a UV-1900 UV-vis spectrophotometer fitted with a Peltier temperature controller (Shimadzhu, Kyoto, Japan), using LabSolutions (Tm Analysis) software. The melting temperatures (Tms) of the MGB-BP-3:DNA complexes were determined by fitting a sigmoidal function using a Boltzmann distribution in OriginPro. Two independent experiments were carried out and the values quoted with an error no worse than ±0.5 °C.

[10] = LUC1, intracellular amastigotes, 72 h post-infection, mean of 3 experiments

T1 sequence (Q12809 whole entry): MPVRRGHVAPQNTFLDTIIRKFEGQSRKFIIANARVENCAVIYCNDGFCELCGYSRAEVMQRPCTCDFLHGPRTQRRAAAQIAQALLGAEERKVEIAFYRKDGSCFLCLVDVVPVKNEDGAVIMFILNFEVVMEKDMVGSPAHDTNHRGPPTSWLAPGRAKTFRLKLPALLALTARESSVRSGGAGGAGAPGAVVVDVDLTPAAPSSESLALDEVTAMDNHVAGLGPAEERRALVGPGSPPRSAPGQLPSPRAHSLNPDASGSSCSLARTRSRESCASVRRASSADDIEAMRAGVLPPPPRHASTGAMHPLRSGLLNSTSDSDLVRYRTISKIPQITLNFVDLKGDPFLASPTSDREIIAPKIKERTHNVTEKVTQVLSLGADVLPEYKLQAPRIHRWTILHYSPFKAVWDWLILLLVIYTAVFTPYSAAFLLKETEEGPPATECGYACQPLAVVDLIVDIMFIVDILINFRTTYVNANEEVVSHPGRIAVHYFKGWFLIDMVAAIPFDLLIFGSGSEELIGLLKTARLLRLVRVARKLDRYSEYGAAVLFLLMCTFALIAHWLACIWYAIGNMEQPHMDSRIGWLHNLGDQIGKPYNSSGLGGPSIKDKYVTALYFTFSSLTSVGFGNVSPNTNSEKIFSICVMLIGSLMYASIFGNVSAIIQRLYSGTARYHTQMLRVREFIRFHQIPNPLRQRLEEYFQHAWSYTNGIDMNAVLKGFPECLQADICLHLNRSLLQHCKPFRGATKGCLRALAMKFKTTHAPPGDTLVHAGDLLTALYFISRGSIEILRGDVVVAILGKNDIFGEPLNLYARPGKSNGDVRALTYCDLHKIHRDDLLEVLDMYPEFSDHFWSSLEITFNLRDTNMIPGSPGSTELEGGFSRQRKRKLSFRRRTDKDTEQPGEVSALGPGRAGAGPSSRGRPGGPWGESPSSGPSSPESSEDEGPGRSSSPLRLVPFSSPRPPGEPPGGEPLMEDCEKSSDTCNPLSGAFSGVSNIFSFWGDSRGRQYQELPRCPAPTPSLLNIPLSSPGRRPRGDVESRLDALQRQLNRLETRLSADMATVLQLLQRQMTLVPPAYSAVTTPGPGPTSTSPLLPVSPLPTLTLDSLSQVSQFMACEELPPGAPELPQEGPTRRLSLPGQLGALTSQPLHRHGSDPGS

SMILES: COc1ccc(/C=C/c2ccc(C(=O)Nc3cc(C(=O)Nc4cc(C(=O)NCC[N+]5([O-])CCOCC5)n(C)c4)n(C)c3)cn2)cc1 [compound 207]
- MIC [1]: 12.5 µM (≈ 7.85 µg/mL)
- IC50 [2, 10]: 3.1 ± 1 µM
- ΔTm, DNA melting temperature increase [3]: 1 °C
- MIC ([4]; ATCC43300, 18 h, 37 °C): > 100 µM
- hERG % displacement of [3H]-astemizole [5]: 45%

SMILES: Cn1cc(NC(=O)c2cc(NC(=O)c3cc(NC=O)cn3C)cn2C)cc1C(=O)NCCC(=N)N [compound 3]
- T. b. brucei MIC [6]: <0.19 * μM
- IC50 ([2]; LUC1, 72 h): 5.1 ± 0.7 µM
- hERG % displacement of [3H]-astemizole [7]: 64 ** %
- ΔTm, DNA melting temperature increase [3]: 17 °C
- MIC ([4]; ATCC43300, 18 h): 0.78 µM (≈ 0.376 µg/mL)

SMILES: N=C(N)c1ccc(-c2cc3ccc(C(=N)N)cc3[nH]2)cc1 [compound 2]
- T. b. brucei MIC [6]: 1.56 * μM
- IC50 [2, 10]: 5.7 ± 0.4 µM
- hERG % displacement of [3H]-astemizole [7]: 58 ** %
- ΔTm, DNA melting temperature increase [3]: 15 °C
- MIC ([4]; ATCC43300, 18 h, 37 °C): 3.12 µM (≈ 0.865 µg/mL)

SMILES: N=C(N)c1ccc(OCCCCCOc2ccc(C(=N)N)cc2)cc1 [compound 1]
- T. b. brucei MIC [6]: 0.78 * μM
- IC50 [2, 10]: 3.5 ± 0.1 µM
- ΔTm, DNA melting temperature increase [3]: 11 °C
- MIC ([4]; ATCC43300, 18 h, 37 °C): 50 µM (≈ 17 µg/mL)

SMILES: COc1cccc(/C=C/c2ccc(C(=O)Nc3cc(C(=O)Nc4cc(C(=O)NCC[N+]5([O-])CCOCC5)n(C)c4)n(C)c3)cc2)c1 [compound 206]
- MIC [1]: 6.25 µM (≈ 3.92 µg/mL)
- IC50 [2, 10]: 2.4 ± 0.3 µM
- ΔTm, DNA melting temperature increase [3]: 1 °C
- MIC ([4]; ATCC43300, 18 h, 37 °C): > 100 µM
- hERG % displacement of [3H]-astemizole [5]: 44%

SMILES: Cn1cc(NC(=O)c2cc(NC(=O)c3ccc(/C=C/c4cnc5ccccc5c4)cc3)cn2C)cc1C(=O)NCCN1CCOCC1 [S-MGB-3, 1-methyl-N-[1-methyl-5-({[2-(4-morpholinyl)ethyl]amino}carbonyl)-1H-pyrrol-3-yl]-4-({4-[(E)-2-(3-quinolinyl)ethenyl]benzoyl}amino)-1H-pyrrole-2-carboxamide]
- binding stoichiometry to double-stranded DNA by nMS [8]: selectively bind to double-stranded DNA as a dimer only
- binding stoichiometry to double-stranded DNA by nMS ([8]; listed as S-MGB-BP-3): bind 2xS-MGB molecules
- Tm increase [9]: 12.6 °C
- Melting Temperature of gDNA + S-MGB complex ([9]; gDNA alone 69.6 ± 0.3): 82.2 ± 0.1 °C
